Measurements: PMC7290078, “Agonist bias and agonist‐dependent antagonism at corticotrophin releasing factor receptors” (Pharmacology Research & Perspectives, 2020)
No end group written: not given here.

Columns and labels:
Assay type in all cases: cell-based
calcitonin receptor = assay: Antagonism of calcitonin-mediated IP1 accumulation in Cos7 cells expressing the human calcitonin receptor; conditions: 100 µmol/L; n = 3
Description: (§1) Plasmids containing hCRF1α and hCRF2α (GenBank accession numbers AY457172 and AY449734) were obtained from the cDNA Resource Centre (Bloomsburg University) and are referred to as CRF1 and CRF2 in this manuscript. Hemagglutinin (HA) epitope‐tagged human Calcitonin (CT) receptor (CT(a) splice variant) and myc‐tagged human RAMP1 were used as described previously. ^27 HA‐tagged human calcitonin receptor‐like receptor (CLR), N‐terminal FLAG‐tagged human RAMP3 and N‐terminal myc‐tagged human RAMP3 were a gift from Professor David Poyner (Aston University) and Professor Patrick Sexton (Monash University), respectively. […]
(§2) Cos7, HEK‐293S, and HEK‐293T cells were cultured as described previously. ^28 , ^29 Cos7 cells were originally supplied by the ATCC to Associate Professor Nigel Birch (University of Auckland). […] For transfection, cells were counted (Countess CounterTM; Life Technologies) and plated at a density of 20 000 cells per well in 96‐well plates. […]
The IP‐one Gq assay kit (Cisbio) was used to quantify accumulated myo‐inositol‐1‐phosphate (IP1), a by‐product of IP3 produced after receptor‐mediated Gαq activation in Cos7 and HEK‐293S cells. […] Fifteen microliters of sample was then transferred to a 384‐well optiplate and read by an Envision plate reader (PerkinElmer). IP1 concentrations were calculated from a standard curve generated in duplicate. […]

CRF2 receptor (hCRF2α) = biological target: T1, CRF2 receptor (hCRF2α) (Homo sapiens, UniProt Q13324); assay: ERK1/2 phosphorylation (AlphaLISA Surefire Ultra) in Cos7 cells transfected with hCRF2α
T1 construct: host or cells: Cos7 cells, transient transfection (PEI), pcDNA3.0/3.1 vector
T1 sequence (Q13324 1-411): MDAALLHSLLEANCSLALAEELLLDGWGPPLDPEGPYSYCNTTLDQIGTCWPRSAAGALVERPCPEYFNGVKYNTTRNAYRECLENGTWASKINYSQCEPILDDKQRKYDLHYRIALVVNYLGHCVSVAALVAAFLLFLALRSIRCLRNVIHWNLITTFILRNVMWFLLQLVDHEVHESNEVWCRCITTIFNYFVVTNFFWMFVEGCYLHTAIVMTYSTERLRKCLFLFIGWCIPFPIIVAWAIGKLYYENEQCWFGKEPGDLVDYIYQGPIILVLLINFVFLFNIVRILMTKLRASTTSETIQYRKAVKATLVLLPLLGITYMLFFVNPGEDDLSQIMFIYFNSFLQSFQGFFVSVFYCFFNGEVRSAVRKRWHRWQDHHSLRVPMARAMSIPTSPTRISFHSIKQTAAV
Description: Plasmids containing hCRF1α and hCRF2α (GenBank accession numbers AY457172 and AY449734) were obtained from the cDNA Resource Centre (Bloomsburg University) and are referred to as CRF1 and CRF2 in this manuscript. Hemagglutinin (HA) epitope‐tagged human Calcitonin (CT) receptor (CT(a) splice variant) and myc‐tagged human RAMP1 were used as described previously. ^27 HA‐tagged human calcitonin receptor‐like receptor (CLR), N‐terminal FLAG‐tagged human RAMP3 and N‐terminal myc‐tagged human RAMP3 were a gift from Professor David Poyner (Aston University) and Professor Patrick Sexton (Monash University), respectively. N‐terminal FLAG‐tagged human RAMP2 was used as described previously. ^28 All receptors and RAMPs were cloned in pcDNA3.0 or pcDNA3.1 plasmid vectors. All plasmid inserts were sequenced at the Centre for Genomics, Proteomics and Metabolomics (University of Auckland) and the sequences were verified prior to use.
Cos7, HEK‐293S, and HEK‐293T cells were cultured as described previously. ^28 , ^29 Cos7 cells were originally supplied by the ATCC to Associate Professor Nigel Birch (University of Auckland). HEK‐293S cells were a gift from Professor David Poyner (Aston University) and HEK‐293T cells a gift from Professor John Taylor (University of Auckland). Briefly, all cell lines were cultured in Dulbecco's Modified Eagle Medium (DMEM) supplemented with 8% heat inactivated fetal bovine serum (FBS) and maintained in a humidified incubator at 37°C with 5% CO2. For transfection, cells were counted (Countess CounterTM; Life Technologies) and plated at a density of 20 000 cells per well in 96‐well plates. The cells were transiently transfected 48 hours prior to assaying using polyethylenimine (PEI), as described previously. ^28 , ^29 In all experiments a total of 0.25 μg DNA was transfected per well. In the majority of experiments 0.25 μg DNA of receptor‐containing plasmid or the pcDNA3.1 plasmid without an insert was used. For experiments involving RAMPs, 0.125 μg of receptor DNA and 0.125 μg of RAMP‐containing plasmid DNA were transfected to give a 1:1 ratio of receptor to RAMP. Where the RAMP or receptor were transfected alone, the ratio of DNA was made up with the pcDNA3.1 plasmid.
The AlphaLISA Surefire Ultra extracellular signal‐regulated kinase 1/2 (ERK1/2) phosphorylation (pERK1/2) assay kit (PerkinElmer Life and Analytical Sciences) was used to measure pERK1/2 in cell lysates after agonist stimulation. For these assays 20% FBS was used as a positive control. Following peptide stimulation at 37°C for 0‐30 minutes with 100 nmol/L agonist (time courses) or 7 minutes with media alone or 1 pmol/L to 1 µmol/L agonist, media was removed and 20 µL of lysis buffer added to each well. Plates were shaken at room temperature for 10 minutes. Each sample was then transferred to a 384‐well optiplate and pERK1/2 measurement performed as per the manufacturer's instructions. Samples were read using an Envision plate reader (PerkinElmer).
In all experiments the position of peptides and antagonists (pharmacology) or transfected receptors (ELISAs) on assay plates was randomized during each independent experiment, which are independent biological replicates. In all cases, duplicate, triplicate, or quadruplicate technical replicates were conducted for each independent experiment. For transfected cell experiments, each independent experiment involved plating cells from a distinct passage, separate transient transfection and separate signaling or ELISA assays, constituting experimental n. For ERK1/2 and IP1 signaling pathways, time‐course experiments were first conducted with a saturating concentration of UCN1 to determine the optimal time to conduct concentration‐response experiments. Concentration‐response experiments were then conducted with the same experimental design for cAMP, ERK1/2, and IP1 pathways. […] All group sizes were designed to be equal at n = 5 independent experiments.

CRF1 receptor (hCRF1α) = biological target: T2, CRF1 receptor (hCRF1α) (Homo sapiens, UniProt P34998); assay: ERK1/2 phosphorylation (AlphaLISA Surefire Ultra) in Cos7 cells transfected with hCRF1α
T2 construct: host or cells: Cos7 cells, transient transfection (PEI), pcDNA3.0/3.1 vector
T2 sequence (P34998 24-415): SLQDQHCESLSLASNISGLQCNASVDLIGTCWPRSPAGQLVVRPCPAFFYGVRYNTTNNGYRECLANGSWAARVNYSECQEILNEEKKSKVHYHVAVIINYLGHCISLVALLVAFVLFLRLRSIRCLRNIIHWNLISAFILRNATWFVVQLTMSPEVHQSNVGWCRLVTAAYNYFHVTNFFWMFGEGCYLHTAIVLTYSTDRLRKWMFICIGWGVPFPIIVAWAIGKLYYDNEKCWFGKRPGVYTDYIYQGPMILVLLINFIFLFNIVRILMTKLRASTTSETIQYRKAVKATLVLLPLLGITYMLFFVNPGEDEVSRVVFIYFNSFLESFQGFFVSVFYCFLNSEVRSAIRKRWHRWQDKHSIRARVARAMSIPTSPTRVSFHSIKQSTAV
Description: as §1, with “respectively. N‐terminal FLAG‐tagged human RAMP2 was used as described previously. ^28 All receptors and RAMPs were cloned in pcDNA3.0 or pcDNA3.1 plasmid vectors.” for “respectively.”
as §2
The AlphaLISA Surefire Ultra extracellular signal‐regulated kinase 1/2 (ERK1/2) phosphorylation (pERK1/2) assay kit (PerkinElmer Life and Analytical Sciences) was used to measure pERK1/2 in cell lysates after agonist stimulation. […] Samples were read using an Envision plate reader (PerkinElmer). […]

CCC(CC)Nc1cc(C)nc(Oc2c(C)cc(C)cc2C)c1C [CP‐376,395]
effect on IP1 accumulation at the calcitonin receptor (calcitonin receptor): no effect on IP1 accumulation at the calcitonin receptor

DNPSLSIDLTFHLLRTLLELARTQSQRERAEQNRIIFDSV-NH2 [UCN1]
EC50 (CRF2 receptor (hCRF2α); pERK1/2, hCRF2α, Cos7, 7 min at 37°C, 1 pmol/L to 1 µmol/L agonist, mean ± SEM, n = 5): 5.62 nM
EC50 (CRF1 receptor (hCRF1α); pERK1/2, hCRF1α, Cos7, 7 min at 37°C, 1 pmol/L to 1 µmol/L agonist, mean ± SEM, n = 5): 22.9 nM

IVLSLDVPIGLLQILLEQARARAAREQATTNARILARVGHC-NH2 (C-terminus assumed) [UCN2]
ability to produce pERK1/2, comparison of peptides (CRF2 receptor (hCRF2α); CRF2 receptor): no significant difference
concentration‐dependent increase in pERK1/2 (CRF2 receptor (hCRF2α); CRF2 receptor): concentration‐dependent increases
Hill slope (CRF2 receptor (hCRF2α); pERK1/2, CRF2 receptor): 0.23
Δlog(τ/K A) (relative efficacy) (CRF2 receptor (hCRF2α); pERK1/2, hCRF2α, reference agonist UCN1, mean ± SEM, n = 5): −0.19 ± 0.42
ΔΔlog(τ/K A) (signaling bias) (CRF2 receptor (hCRF2α); pERK1/2 relative to cAMP, hCRF2α, reference agonist UCN1, mean ± SEM, n = 5): 0.36 ± 0.46
concentration‐dependent increase in pERK1/2 (CRF1 receptor (hCRF1α); CRF1 receptor): not UCN2 and UCN3 exhibited a concentration‐dependent increase
